Where “and” joins values, the source holds several entries; their conditions need not be identical. Identical values can stand only once.
How the values were obtained:
[1] = system: ELIC double mutants (arginine mutants in combination with R299Q); test: Native MS POPG binding, double arginine mutants as a group; set-up: species or system Erwinia chrysanthemi
Method: Native MS analysis was similar to previous descriptions for other membrane proteins ([Gault et al., 2016]). For analysis of ELIC in DDM, 30 μl of purified protein in 0.02% DDM at ~1 mg/ml was buffer exchanged into 200 mM ammonium acetate pH 7.5% and 0.02% DDM using Biospin six gel filtration spin columns (Bio-Rad, Hercules, CA). 2 μl of buffer exchanged ELIC was loaded into a borosilicate capillary emitter (Thermo Scientific, Waltham, MA), and analyzed by static nanospray on a Thermo QExactive EMR mass spectrometer. The following parameters were used to resolve the ELIC pentamer and minimize dissociation into tetramer and monomer: capillary voltage of 1.2 kV, capillary temperature of 200°C, ion transfer optics set with the injection flatapole, inter-flatapole lens, bent flatapole, transfer multiple as 8, 7, 6, 4 V, respectively, resolution 8,750, AGC target 3 × 10^6, trap pressure set to maximum, CID 200 V, and CE 100 V. For analysis of ELIC in C10E5, ELIC delipidated by injecting 300 μg onto a Sephadex 200 10/300 column (GE Healthcare) at 0.5 ml/min pre-equilibrated with Buffer A, 10% glycerol, and 0.06% C10E5 (Anatrace). 30 μl aliquots were then buffer exchanged to 100 mM ammonium acetate pH 7.5, 0.06% C10E5 using Biospin six columns, and diluted to 0.2 mg/ml. […] Lipid stocks were then mixed with 0.4 mg/ml ELIC in a 1:1 vol ratio for a final concentration of 1 μM ELIC, and samples were analyzed after >5 min incubation.
(§1) MS spectra were deconvoluted using UniDec ([Marty et al., 2015]); deconvolution of spectra with bound lipid was restricted to the 26+ to 22+ charge states (Figure 1—figure supplement 3). Peak heights of apo and lipid-bound species were extracted from UniDec, and analyzed by two approaches. The average number of bound lipids was determined by the following relationship:(1) Averagenumberboundlipid=∑n=0kn\cdot In/∑n=0kIn where n is the number of bound lipids and In is the deconvoluted peak height of ELIC with n bound lipids. […]

ELIC L238A = target: T1, ELIC L238A (Dickeya chrysanthemi, UniProt P0C7B7, L237A); test: Native MS POPG binding, mutant; set-up: species or system Erwinia chrysanthemi; conditions: 12 μM POPG
T1 construct: MBP (N, cleaved yes); made in house; host or cells: OverExpress C43 (DE3) E. coli
T1 sequence (P0C7B7 whole entry L237A): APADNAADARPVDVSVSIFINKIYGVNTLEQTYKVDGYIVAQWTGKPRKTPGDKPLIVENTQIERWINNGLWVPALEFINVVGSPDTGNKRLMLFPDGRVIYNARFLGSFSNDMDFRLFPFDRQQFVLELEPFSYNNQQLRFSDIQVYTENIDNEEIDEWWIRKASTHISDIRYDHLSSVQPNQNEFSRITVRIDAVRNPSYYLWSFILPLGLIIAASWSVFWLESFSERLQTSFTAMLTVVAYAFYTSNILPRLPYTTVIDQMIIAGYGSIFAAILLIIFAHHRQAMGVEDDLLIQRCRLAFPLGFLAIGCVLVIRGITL
Method: (§2) Native MS analysis was similar to previous descriptions for other membrane proteins ([Gault et al., 2016]). For analysis of ELIC in DDM, 30 μl of purified protein in 0.02% DDM at ~1 mg/ml was buffer exchanged into 200 mM ammonium acetate pH 7.5% and 0.02% DDM using Biospin six gel filtration spin columns (Bio-Rad, Hercules, CA). 2 μl of buffer exchanged ELIC was loaded into a borosilicate capillary emitter (Thermo Scientific, Waltham, MA), and analyzed by static nanospray on a Thermo QExactive EMR mass spectrometer. […] Lipid stocks were then mixed with 0.4 mg/ml ELIC in a 1:1 vol ratio for a final concentration of 1 μM ELIC, and samples were analyzed after >5 min incubation.
as §1

ELIC WT [2] = test: Native MS phospholipid binding to delipidated ELIC in C10E5; set-up: species or system Erwinia chrysanthemi
Method: (§3) Native MS analysis was similar to previous descriptions for other membrane proteins ([Gault et al., 2016]). For analysis of ELIC in DDM, 30 μl of purified protein in 0.02% DDM at ~1 mg/ml was buffer exchanged into 200 mM ammonium acetate pH 7.5% and 0.02% DDM using Biospin six gel filtration spin columns (Bio-Rad, Hercules, CA). 2 μl of buffer exchanged ELIC was loaded into a borosilicate capillary emitter (Thermo Scientific, Waltham, MA), and analyzed by static nanospray on a Thermo QExactive EMR mass spectrometer. The following parameters were used to resolve the ELIC pentamer and minimize dissociation into tetramer and monomer: capillary voltage of 1.2 kV, capillary temperature of 200°C, ion transfer optics set with the injection flatapole, inter-flatapole lens, bent flatapole, transfer multiple as 8, 7, 6, 4 V, respectively, resolution 8,750, AGC target 3 × 10^6, trap pressure set to maximum, CID 200 V, and CE 100 V. For analysis of ELIC in C10E5, ELIC delipidated by injecting 300 μg onto a Sephadex 200 10/300 column (GE Healthcare) at 0.5 ml/min pre-equilibrated with Buffer A, 10% glycerol, and 0.06% C10E5 (Anatrace). 30 μl aliquots were then buffer exchanged to 100 mM ammonium acetate pH 7.5, 0.06% C10E5 using Biospin six columns, and diluted to 0.2 mg/ml. MS measurements on the QExactive EMR were performed with the parameters listed above except: capillary temperature 100°C, CID 75 V and CE 200 V. For lipid binding measurements, stocks of POPG lipid were prepared at 2× the concentration of POPG being tested in 100 mM ammonium acetate pH 7.5% and 0.06% C10E5. Lipid stocks were then mixed with 0.4 mg/ml ELIC in a 1:1 vol ratio for a final concentration of 1 μM ELIC, and samples were analyzed after >5 min incubation.
(§4) MS spectra were deconvoluted using UniDec ([Marty et al., 2015]); deconvolution of spectra with bound lipid was restricted to the 26+ to 22+ charge states (Figure 1—figure supplement 3). Peak heights of apo and lipid-bound species were extracted from UniDec, and analyzed by two approaches. The average number of bound lipids was determined by the following relationship:(1) Averagenumberboundlipid=∑n=0kn\cdot In/∑n=0kIn where n is the number of bound lipids and In is the deconvoluted peak height of ELIC with n bound lipids. Peak heights of apo and lipid-bound species were also plotted as mole fraction versus the number of bound lipids (Figure 1—figure supplement 4).
(§5) Then, the probability (B) that q sites are occupied out of N total sites is given by the binomial probability function:(3) Bq=N!/q!N-q!p^N-q(1-p)^q
(§6) B(q) was used to determine the mole fraction of each lipid-bound species at a given [A], which was used to fit the native MS data in Excel across all [A] by setting K constant and varying N or vice versa.

[3] = system: ELIC single mutants (R123Q, R286Q, R299Q); test: Native MS POPG binding, single arginine mutants as a group; set-up: species or system Erwinia chrysanthemi; conditions: 12 μM POPG; not statistically significant
Method: as §2, §1

ELIC WT [4] = test: Excised patch-clamp recordings from giant liposomes; conditions: 30 mM cysteamine; for Desensitization norm current at 20 s: normalized to peak response
ELIC R117Q/R299Q = target: T2, ELIC R117Q/R299Q (Dickeya chrysanthemi, UniProt P0C7B7, R117Q/R298Q); test: Native MS POPG binding, mutant; set-up: species or system Erwinia chrysanthemi; conditions: binomial fit, N varied; 12 μM POPG
T2 construct: MBP (N, cleaved yes); made in house; host or cells: OverExpress C43 (DE3) E. coli
T2 sequence (P0C7B7 whole entry R117Q/R298Q): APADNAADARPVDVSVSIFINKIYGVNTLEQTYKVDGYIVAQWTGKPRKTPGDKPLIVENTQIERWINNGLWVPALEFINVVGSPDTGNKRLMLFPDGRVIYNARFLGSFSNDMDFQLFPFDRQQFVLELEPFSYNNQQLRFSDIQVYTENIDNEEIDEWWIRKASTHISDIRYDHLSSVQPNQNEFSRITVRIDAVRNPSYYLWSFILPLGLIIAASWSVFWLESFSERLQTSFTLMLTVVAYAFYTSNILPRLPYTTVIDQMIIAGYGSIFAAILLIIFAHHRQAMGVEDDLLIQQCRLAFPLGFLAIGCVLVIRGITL
Method: as §3, §4, §5, §6

ELIC R123Q/R299Q = target: T3, ELIC R123Q/R299Q (Dickeya chrysanthemi, UniProt P0C7B7, R123Q/R298Q); test: Native MS POPG binding, mutant; set-up: species or system Erwinia chrysanthemi; conditions: binomial fit, N varied; 12 μM POPG
T3 construct: MBP (N, cleaved yes); made in house; host or cells: OverExpress C43 (DE3) E. coli
T3 sequence (P0C7B7 whole entry R123Q/R298Q): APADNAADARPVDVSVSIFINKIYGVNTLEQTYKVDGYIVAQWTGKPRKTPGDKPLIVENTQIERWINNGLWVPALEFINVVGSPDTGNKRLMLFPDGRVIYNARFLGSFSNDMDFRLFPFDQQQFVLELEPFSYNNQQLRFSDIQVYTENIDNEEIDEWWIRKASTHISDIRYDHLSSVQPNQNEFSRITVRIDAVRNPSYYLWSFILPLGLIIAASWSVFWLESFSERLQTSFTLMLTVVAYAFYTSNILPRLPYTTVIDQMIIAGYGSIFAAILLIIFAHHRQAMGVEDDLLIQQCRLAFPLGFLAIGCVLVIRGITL
Method: as §3, §4, §5, §6

ELIC R286Q/R299Q = target: T4, ELIC R286Q/R299Q (Dickeya chrysanthemi, UniProt P0C7B7, R285Q/R298Q); test: Native MS POPG binding, mutant; set-up: species or system Erwinia chrysanthemi; conditions: binomial fit, N varied; 12 μM POPG
T4 construct: MBP (N, cleaved yes); made in house; host or cells: OverExpress C43 (DE3) E. coli
T4 sequence (P0C7B7 whole entry R285Q/R298Q): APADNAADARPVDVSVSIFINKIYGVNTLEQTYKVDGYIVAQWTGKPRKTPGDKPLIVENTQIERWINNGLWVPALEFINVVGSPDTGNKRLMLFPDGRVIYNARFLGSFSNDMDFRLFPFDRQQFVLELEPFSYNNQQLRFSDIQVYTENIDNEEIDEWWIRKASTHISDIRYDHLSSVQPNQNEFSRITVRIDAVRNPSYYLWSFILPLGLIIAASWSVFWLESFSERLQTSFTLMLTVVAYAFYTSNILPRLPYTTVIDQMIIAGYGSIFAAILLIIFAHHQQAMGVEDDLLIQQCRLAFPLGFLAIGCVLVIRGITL
Method: as §3, §4, §5, §6

ELIC R299Q = target: T5, ELIC R299Q (Dickeya chrysanthemi, UniProt P0C7B7, R298Q); test: Native MS POPG binding, mutant; set-up: species or system Erwinia chrysanthemi; conditions: binomial fit, N varied; 12 μM POPG
T5 construct: MBP (N, cleaved yes); made in house; host or cells: OverExpress C43 (DE3) E. coli
T5 sequence (P0C7B7 whole entry R298Q): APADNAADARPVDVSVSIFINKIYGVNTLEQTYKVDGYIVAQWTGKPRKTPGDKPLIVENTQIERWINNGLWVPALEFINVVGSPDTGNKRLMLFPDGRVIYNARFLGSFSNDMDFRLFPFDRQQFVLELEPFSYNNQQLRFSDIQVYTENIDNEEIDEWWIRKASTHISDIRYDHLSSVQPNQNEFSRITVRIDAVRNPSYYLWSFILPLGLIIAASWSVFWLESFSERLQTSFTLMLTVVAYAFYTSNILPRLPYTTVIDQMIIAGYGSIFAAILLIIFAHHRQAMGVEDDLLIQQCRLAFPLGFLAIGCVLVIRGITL
Method: as §3, §4, §5, §6

ELIC R301Q/R299Q = target: T6, ELIC R301Q/R299Q (Dickeya chrysanthemi, UniProt P0C7B7, R298Q/R300Q); test: Native MS POPG binding, mutant; set-up: species or system Erwinia chrysanthemi; conditions: binomial fit, N varied; 12 μM POPG
T6 construct: MBP (N, cleaved yes); made in house; host or cells: OverExpress C43 (DE3) E. coli
T6 sequence (P0C7B7 whole entry R298Q/R300Q): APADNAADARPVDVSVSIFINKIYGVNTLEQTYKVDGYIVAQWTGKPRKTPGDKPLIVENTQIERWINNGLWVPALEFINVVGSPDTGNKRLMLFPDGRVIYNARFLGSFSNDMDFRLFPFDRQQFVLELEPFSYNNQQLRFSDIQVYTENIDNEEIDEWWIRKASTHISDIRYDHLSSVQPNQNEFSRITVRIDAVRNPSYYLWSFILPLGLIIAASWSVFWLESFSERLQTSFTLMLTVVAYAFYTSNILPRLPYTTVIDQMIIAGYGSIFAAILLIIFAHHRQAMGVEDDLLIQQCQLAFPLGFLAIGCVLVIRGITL
Method: as §3, §4, §5, §6

ELIC R286Q = target: T7, ELIC R286Q (Dickeya chrysanthemi, UniProt P0C7B7, R285Q); test: Native MS POPG binding, mutant; set-up: species or system Erwinia chrysanthemi; conditions: binomial fit, N varied; 12 μM POPG
T7 construct: MBP (N, cleaved yes); made in house; host or cells: OverExpress C43 (DE3) E. coli
T7 sequence (P0C7B7 whole entry R285Q): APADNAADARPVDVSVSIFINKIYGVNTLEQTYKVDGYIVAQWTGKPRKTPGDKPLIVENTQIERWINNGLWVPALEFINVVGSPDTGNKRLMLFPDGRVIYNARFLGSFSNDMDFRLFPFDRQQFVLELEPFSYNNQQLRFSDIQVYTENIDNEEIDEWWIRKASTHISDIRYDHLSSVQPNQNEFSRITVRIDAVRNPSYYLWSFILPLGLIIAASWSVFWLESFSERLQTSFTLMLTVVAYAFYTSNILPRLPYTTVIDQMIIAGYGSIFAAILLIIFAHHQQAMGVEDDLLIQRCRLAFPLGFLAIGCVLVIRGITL
Method: as §3, §4, §5, §6

ELIC WT [5] = test: Thermal stability assay (SEC pentamer peak after heating); assay type: binding, Erwinia chrysanthemi
Method: Purified WT ELIC in C10E5 (Buffer A, 0.06% C10E5) was diluted to 1 μM in the absence or presence of various concentrations of phospholipid. Samples were analyzed without and with heating in the absence or presence of phospholipid. […] The stabilizing effect of a phospholipid was quantified as the pentamer amplitude in the presence of phospholipid (heated) divided by control (heated).

CCCCCCCC/C=C\CCCCCCCC(=O)OC(COC(=O)CCCCCCCCCCCCCCC)COP(=O)(O)OCC(O)CO (centres unmarked) [POPG, 1-palmitoyl-2-oleoyl-phosphatidylglycerol]
Decrease in bound phospholipid with each double mutant [1]: 35–45%
Decrease in average number of bound POPG relative to R299Q ([1]; 12 μM POPG): 27–32%
Decrease in average number of bound POPG relative to WT ([1]; 12 μM POPG): 38–41%
Increase in average number of POPG bound compared to WT (ELIC L238A): ~ 1.7 x
Average number of bound phospholipids per pentamer (ELIC WT [2]; 12 μM lipid, 1 μM ELIC): 2.9
Maximum number of bound POPG per pentamer seen in native MS spectra (ELIC WT [2]; 12 μM lipid, 1 μM ELIC): up to nine
Kd (ELIC WT [2]; binomial binding model, 32 sites of equal affinity, 1 μM ELIC in C10E5, read-out: Dissociation constant K): 101 µM
Fold higher affinity than POPC (ELIC WT [2]; from binomial fits): ~2.8 ×
Fold higher affinity than POPE (ELIC WT [2]; from binomial fits): ~ 1.9 ×
Decrease in average number of bound POPG compared to WT [3]: 13–18%
Desensitization weighted τ (ELIC WT [4]; 12 mole% POPG giant liposomes): 0.93 ± 0.32 s
Activation τ (ELIC WT [4]; 12 mole% POPG): 112 ± 29 ms
Desensitization norm current at 20 s (ELIC WT [4]; 12 mole% POPG): 0.05 ± 0.02
Activation τ (ELIC WT [4]; 25 mole% POPG): 134 ± 50 ms
Desensitization norm current at 20 s (ELIC WT [4]; 25 mole% POPG): 0.10 ± 0.04
Desensitization weighted τ (ELIC WT [4]; 40 mole% POPG giant liposomes): 2.98 ± 0.24 s
Activation τ (ELIC WT [4]; 40 mole% POPG): 133 ± 66 ms
Desensitization norm current at 20 s (ELIC WT [4]; 40 mole% POPG): 0.21 ± 0.03
N (# sites) (ELIC R117Q/R299Q): 20
N (# sites) (ELIC R123Q/R299Q): 18
N (# sites) (ELIC R286Q/R299Q): 18
N (# sites) (ELIC R299Q): 27
N (# sites) (ELIC R301Q/R299Q): 21
N (# sites) (ELIC R286Q): 28
EC50 (ELIC WT [5]; 1 μM ELIC in C10E5, 32°C for 15 min, read-out: EC50 of thermal stabilizing effect (concentration of POPG for 50% effect)): 52 µM
Fraction of thermal stabilizing effect yielded by 32 bound POPG (ELIC WT [5]; extrapolation relating POPG binding to thermal stability): ~ 82% and > 80%
